US4552969A, “3-Alkanoyl benzothiazoline compounds useful for treating cardiovascular disease” (Santen Pharmaceutical Co., Ltd., priority 1981, dated 1985)
Counter-ions that a name gives are not always drawn.

How the values were obtained:
[1] = system: platelet aggregation; assay: Pharmacological test II: anti-aggregatory activity, collagen or ADP induced platelet aggregation in vitro (platelet rich plasma); assay type: cell-based; settings: Oryctolagus cuniculus, 50% inhibition of control response, rabbit PRP, 1 minute preincubation at 37° C., collagen (3 μg/ml) or ADP (3 μM), inducer not given
Description: Blood platelet plays an important role only in hemostasis but also in thrombosis. Platelet hyperaggregability leads to an inclease in the number of circulating platelet aggregates, which may contribute toward the development of cardiac arrythmias, cardiac arrest or myocardial infarction. These cardiovascular diseases can be prevented by inhibition of platelet aggregation.
Blood was obtained from an anesthetized rabbit using 0.1 volumes of 3.8% sodium citrate as anticoagulant. Platelet rich plasma(PRP) was isolated by centrifugation at 650 rpm for 10 minutes at room temperature. After preincubation of PRP (0.25 ml) with various concentrations of test compounds (14 μl) for 1 minute at 37° C., collagen (3 μg/ml:final concentration) or ADP (3 μM:final concentration) was added to induce aggregation and the aggregation profiles were monitored with RIKADENKI six-channel aggregometer. The control experiment contained saline instead of test compound.
The anti-aggregatory activity was represented by the concentration of test compound which elicited 50% inhibition of control response.

[2] = system: guinea-pig teania coli; assay: Pharmacological test I: calcium-antagonistic activity, inhibition of Ca++-evoked contraction of isolated taenia coli; assay type: cell-based; settings: Cavia porcellus, 5 min; 50% inhibition of contraction evoked by CaCl2 (3×10^-4 M); Ca++-free-high-K Krebs solution, 32° C., 5 minutes pre-exposure
Method: The action potentials on the smooth muscles of uterus, teania coli and portal vein are dependent on calcium ion, and therefor these smooth muscle preparations are useful for screening of calcium antagonists. We measured the calcium-antagonistic activity of the compounds by the method using guinea-pig teania coli preparation.
Isolated guinea-pig teania coil was suspended in a 20 ml organ bath with Krebs solution at 32° C. and bubbled with 5% carbon dioxide in oxygen. After equilibration, the muscle was washed with Ca^++ -free Krebs solution, and when the muscle had relaxed to basal level, it was suspended in Ca^++ -free-high-K Krebs solution.
The muscle was exposed to test compounds for 5 minutes before addition of CaCl2, and the contraction evoked by CaCl2 (3×10^-4 M) was recorded isotonically. The calcium-antagonistic activity was represented by the concentration of test compound which elicited 50% inhibition of Ca^++ -evoked contraction (IC50).

[3] = Acute toxicity test, oral; settings: rat, in vivo, male ddy-SLC, 0.5% tragacanth suspension
Method: Male ddy-SLC strain rats (4 weeks of age, weighing 19-21 g) were placed in a breeding room of constant temperature and huminity (23±1° C., 55±5%) and fed freely pellet diet and water ad. libitum for a week. Rats showing normal growth were selected for the test.
Test compounds are suspended in 0.5% tragacanth suspention and administered orally in a dose of 0.5 ml/20 g body weight.

IC50 [1] | Structure (SMILES) | IC50 [2] | LD50 [3]
2.7 µM | CC(=O)N1c2ccccc2SC1c1cc([N+](=O)[O-])ccc1OCCCN1CCC(Cc2ccccc2)CC1 (centres unmarked) [Compound 95] | – | –
1.3 µM | COc1ccc(OCCCCCN(C)C2CCCCC2)c(C2Sc3ccccc3N2C(C)=O)c1 (centres unmarked) [Compound 21, 3-Acetyl-2-[2-[5-(N-cyclohexyl-N-methlamino)pentyloxy]-5-methoxyphenyl]benzothiazoline fumarate] | – | –
4.6 µM | CC(=O)N1c2ccccc2SC1c1ccccc1OCCCN(C)C1CCCCC1 (centres unmarked) [Compound 8] | – | –
– | COc1ccc(OCCCCN(C)CCc2ccc(OC)c(OC)c2)c(C2Sc3ccccc3N2C(C)=O)c1 (centres unmarked) [Compound 23] | 0.66 µM | –
2 µM | COc1cc(C2Sc3ccccc3N2C(C)=O)cc(OC)c1OCCCCN(C)C1CCCCC1 (centres unmarked) [Compound 55] | – | –
1.1 µM | COc1ccc(OCCCCCCN(C)C2CCCCC2)c(C2Sc3ccccc3N2C(C)=O)c1 (centres unmarked) [Compound 22] | – | –
– | COc1ccc(OCCCCN2CCN(CCc3ccc(OC)c(OC)c3)CC2)c(C2Sc3ccccc3N2C(C)=O)c1 (centres unmarked) [Compound 63] | 0.64 µM | ≥ 3000 mg/kg
– | COc1ccc(OCCCCN2CCN(CCc3cc(OC)c(OC)c(OC)c3)CC2)c(C2Sc3ccccc3N2C(C)=O)c1 (centres unmarked) [Compound 67] | 0.47 µM | > 1000 mg/kg
3.1 µM | COc1cc(C2Sc3ccccc3N2C(C)=O)cc(OC)c1OCCCN(C)C1CCCCC1 (centres unmarked) [Compound 54] | – | –
– | CC(=O)N1c2ccccc2SC1c1cc([N+](=O)[O-])ccc1OCCCNCc1cccnc1 (centres unmarked) [Compound 33] | 0.52 µM | –

Structure (SMILES) | IC50 [1] | IC50 [2] | LD50 [3]
CC(=O)N1c2ccccc2SC1c1cc([N+](=O)[O-])ccc1OCCCN(C)C1CCCCC1 (centres unmarked) [Compound 29] | 3.2 µM | – | > 2000 mg/kg
